Patent US10053458B2, “Pyrimidine-2,4-diamine derivative and anticancer pharmaceutical composition comprising same as effective ingredient” (KOREA RESEARCH INSTITUTE OF CHEMICAL TECHNOLOGY, priority 2014, dated 2018)
pIC50: −log10 of the molar value.

How the values were obtained:
[1] = system: H2228; assay: Cancer cell proliferation inhibition (SRB/MTS), H2228; conditions: Homo sapiens, NCI-H2228, 72 h, read-out: H2228 GI50
Procedure: (§1) Cancer cell lines used in the experiments were all human-derived cancer cell lines, specifically H2228 and H3122, which are non-small cell lung cancer cell lines.
(§2) The cancer cell proliferation inhibition was measured using the MTS assay as follows. […] Each culture medium was placed in an incubator for 4 hours, taken out and left at room temperature for 10 minutes.

[2] = system: H3122; assay: Cancer cell proliferation inhibition (SRB/MTS), H3122; conditions: Homo sapiens, NCI-H3122, 72 h, read-out: H3122 GI50
Procedure: as §1, §2

[3] = system: BaF3 EML4-ALK WT cells; assay: Cytotoxicity on BaF3 cell transfected with EML4-ALK WT (WST-1); conditions: Ba/F3 EML4-ALK, 72 h, read-out: BaF3 EML4-ALK WT, IC50 of the cytotoxicity

Structure (SMILES) | GI50 [1] [nM] | GI50 [2] [nM] | pIC50 [3]
CCC1(CC)NCCc2cc(Nc3ncc(Cl)c(Nc4ccccc4S(=O)(=O)C(C)C)n3)c(OC)cc21 [Example 74, 5-chloro-N4-(2-(isopropylsulfonyl)phenyl)-N2-(1,1-diethyl-7-methoxy-1,2,3,4-tetrahydroisoquinolin-6-yl)pyrimidine-2,4-diamine] | < 50 | < 50 | > 7.30
COc1cc2c(cc1Nc1ncc(Cl)c(Nc3ccccc3S(=O)(=O)C(C)C)n1)CNCC2(C)C [Example 75, 5-chloro-N4-(2-(isopropylsulfonyl)phenyl)-N2-(6-methoxy-4,4-dimethyl-1,2,3,4-tetrahydroisoquinolin-7-yl)pyrimidine-2,4-diamine] | < 50 | < 50 | > 7.30
CCN1CCc2cc(Nc3ncc(Cl)c(Nc4ccccc4S(=O)(=O)C(C)C)n3)c(OC(C)C)cc2C1(C)C [Example 79, 5-chloro-N4-(2-(isopropylsulfonyl)phenyl)-N2-(2-ethyl-7-isopropoxy-1,1-dimethyl-1,2,3,4-tetrahydroisoquinolin-6-yl)pyrimidine-2,4-diamine] | < 50 | < 50 | > 7.30
CC(C)Oc1cc2c(cc1Nc1ncc(Cl)c(Nc3ccccc3S(=O)(=O)C(C)C)n1)CNCC2(C)C [Example 80, 5-chloro-N4-(2-(isopropylsulfonyl)phenyl)-N2-(6-isopropoxy-4,4-dimethyl-1,2,3,4-tetrahydroisoquinolin-7-yl)pyrimidine-2,4-diamine] | < 50 | < 50 | > 7.30
CCOc1cc2c(cc1Nc1ncc(Cl)c(Nc3ccccc3S(=O)(=O)C(C)C)n1)CN(CC)CC2(C)C [Example 81, 5-chloro-N4-(2-(isopropylsulfonyl)phenyl)-N2-(6-ethoxy-2-ethyl-4,4-dimethyl-1,2,3,4-tetrahydroisoquinolin-7-yl)pyrimidine-2,4-diamine] | < 50 | < 50 | > 7.30
COc1cc2c(cc1Nc1ncc(Cl)c(Nc3ccccc3S(=O)(=O)C(C)C)n1)CNCC21CCCC1 [Example 83, 5-chloro-N4-(2-(isopropylsulfonyl)phenyl)-N2-(6-methoxy-2,3-dihydro-1H-spiro(cyclopentane-1,4-isoquinolin)-7-yl)pyrimidine-2,4-diamine] | < 50 | < 50 | > 7.30
COc1c(Nc2ncc(Cl)c(Nc3ccccc3S(=O)(=O)C(C)C)n2)cc2c(c1Br)C(C)(C)NCC2 [Example 89, 5-chloro-N4-(2-(isopropylsulfonyl)phenyl)-N2-(8-bromo-7-methoxy-1,1-dimethyl-1,2,3,4-tetrahydroisoquinolin-6-yl)pyrimidine-2,4-diamine] | < 50 | < 50 | > 7.30
COc1cc2c(cc1Nc1ncc(Cl)c(Nc3ccccc3S(=O)(=O)C(C)C)n1)CN(C)CC2(C)C [Example 91, 5-chloro-N4-(2-(isopropylsulfonyl)phenyl)-N2-(6-methoxy-2,4,4-trimethyl-1,2,3,4-tetrahydroisoquinolin-7-yl)pyrimidine-2,4-diamine] | < 50 | < 50 | > 7.30
CCN1Cc2cc(Nc3ncc(Cl)c(Nc4ccccc4S(=O)(=O)C(C)C)n3)c(OC)cc2C(C)(C)C1 [Example 92, 5-chloro-N4-(2-(isopropylsulfonyl)phenyl)-N2-(2-ethyl-6-methoxy-4,4-trimethyl-1,2,3,4-tetrahydroisoquinolin-7-yl)pyrimidine-2,4-diamine] | < 50 | < 50 | > 7.30
CCOc1cc2c(cc1Nc1ncc(Cl)c(Nc3ccccc3S(=O)(=O)C(C)C)n1)CCNC2(C)C [Example 99, 5-chloro-N4-(2-(isopropylsulfonyl)phenyl)-N2-(7-ethoxy-1,1-dimethyl-1,2,3,4-tetrahydroisoquinolin-6-yl)pyrimidine-2,4-diamine] | < 50 | < 50 | > 7.30
CC(C)S(=O)(=O)c1ccccc1Nc1nc(Nc2cc3c(cc2OC(F)F)C(C)(C)NCC3)ncc1Cl [Example 100, 5-chloro-N4-(2-(isopropylsulfonyl)phenyl)-N2-(7-difluoromethoxy-1,1-dimethyl-1,2,3,4-tetrahydroisoquinolin-6-yl)pyrimidine-2,4-diamine] | < 50 | < 50 | > 7.30
COc1cc2c(cc1Nc1ncc(Cl)c(Nc3ccccc3S(=O)(=O)C(C)C)n1)CCCNC2(C)C [Example 104, 5-chloro-N4-(2-(isopropylsulfonyl)phenyl)-N2-(8-methoxy-1,1-dimethyl-2,3,4,5-tetrahydro-1H-benzo[c]azepin-7-yl)pyrimidine-2,4-diamine] | < 50 | < 50 | > 7.30

More lines, main results first:

GI50 [1] [nM] | GI50 [2] [nM] | Structure (SMILES) | pIC50 [3]
< 50 | < 50 | COc1cc2c(cc1Nc1ncc(Cl)c(Nc3ccccc3S(=O)(=O)C(C)C)n1)CCNC2C(=O)O (stereo not drawn) [Example 76, 6-(5-chloro-4-(2-(isopropylsulfonyl)phenylamino)pyrimidin-2-yl)amino-7-methoxy-1,2,3,4-dihydroisoquinoline-1-carboxylic acid] | > 7.30
< 50 | < 50 | CCN1CCc2cc(Nc3ncc(Cl)c(Nc4ccccc4S(=O)(=O)C(C)C)n3)c(OC)cc2C1(C)C [Example 77, 5-chloro-N4-(2-(isopropylsulfonyl)phenyl)-N2-(2-ethyl-7-methoxy-1,1-dimethyl-1,2,3,4-tetrahydroisoquinolin-6-yl)pyrimidine-2,4-diamine] | > 7.30
< 50 | < 50 | COc1cc2c(cc1Nc1ncc(Cl)c(Nc3ccccc3S(=O)(=O)C(C)C)n1)CCN(C(=O)CO)C2(C)C [Example 78, 1-6-(5-chloro-4-(2-(isopropylsulfonyl)phenylamino)pyrimidin-2-yl)amino-7-methoxy-1,1-dimethyl-3,4-dihydroisoquinolin-2(1H)-yl-2-hydroxyethane-1-one] | > 7.30
< 50 | < 50 | CCN1Cc2cc(Nc3ncc(Cl)c(Nc4ccccc4S(=O)(=O)C(C)C)n3)c(OC(C)C)cc2C(C)(C)C1 [Example 82, 5-chloro-N4-(2-(isopropylsulfonyl)phenyl)-N2-(2-ethyl-6-isopropoxy-4,4-dimethyl-1,2,3,4-tetrahydroisoquinolin-7-yl)pyrimidine-2,4-diamine] | > 7.30
< 50 | < 50 | COc1cc2c(cc1Nc1ncc(Cl)c(Nc3ccccc3S(=O)(=O)C(C)C)n1)C1CNCC(=O)N1CC2(C)C (stereo not drawn) [Example 85] | > 7.30
< 50 | < 50 | COc1cc2c(cc1Nc1ncc(Cl)c(Nc3ccccc3S(=O)(=O)C(C)C)n1)C1CNCCN1CC2(C)C (stereo not drawn) [Example 86, 5-chloro-N4-(2-(isopropylsulfonyl)phenyl)-N2-(9-methoxy-7,7-dimethyl-1,3,4,6,7,11b-hexahydro-2H-pyrazino[2,1-a]isoquinolin-10-yl)pyrimidine-2,4-diamine] | > 7.30
< 50 | < 50 | COc1cc2c(c(Br)c1Nc1ncc(Cl)c(Nc3ccccc3S(=O)(=O)C(C)C)n1)CCNC2(C)C [Example 87, 5-chloro-N4-(2-(isopropylsulfonyl)phenyl)-N2-(5-bromo-7-methoxy-1,1-dimethyl-1,2,3,4-tetrahydroisoquinolin-6-yl)pyrimidine-2,4-diamine] | > 7.30
< 50 | < 50 | COc1cc2c(c(Cl)c1Nc1ncc(Cl)c(Nc3ccccc3S(=O)(=O)C(C)C)n1)CCNC2(C)C [Example 88, 5-chloro-N4-(2-(isopropylsulfonyl)phenyl)-N2-(5-chloro-7-methoxy-1,1-dimethyl-1,2,3,4-tetrahydroisoquinolin-6-yl)pyrimidine-2,4-diamine] | > 7.30
< 50 | < 50 | COc1c(Nc2ncc(Cl)c(Nc3ccccc3S(=O)(=O)C(C)C)n2)cc2c(c1Cl)C(C)(C)NCC2 [Example 90, 5-chloro-N4-(2-(isopropylsulfonyl)phenyl)-N2-(8-chloro-7-methoxy-1,1-dimethyl-1,2,3,4-tetrahydroisoquinolin-6-yl)pyrimidine-2,4-diamine] | > 7.30
< 50 | < 50 | COc1cc2c(cc1Nc1ncc(Cl)c(Nc3ccccc3S(=O)(=O)C(C)C)n1)CN(C(=O)CN(C)C)CC2(C)C [Example 94] | > 7.30
< 50 | < 50 | COc1cc2c(cc1Nc1ncc(Cl)c(Nc3ccccc3S(=O)(=O)C(C)C)n1)CN(C(=O)CO)CC2(C)C [Example 95] | > 7.30
< 50 | < 50 | COc1cc2c(cc1Nc1ncc(Cl)c(Nc3ccccc3S(=O)(=O)C(C)C)n1)CNCC21CC1 [Example 96, 5-chloro-N4-(2-(isopropylsulfonyl)phenyl)-N2-(6-methoxy-2,3-dihydro-1H-spiro(cyclopropane-1,4-isoquinolin)-7-yl)pyrimidine-2,4-diamine] | > 7.30
< 50 | < 50 | CCCC1NCCc2cc(Nc3ncc(Cl)c(Nc4ccccc4S(=O)(=O)C(C)C)n3)c(OC)cc21 (stereo not drawn) [Example 102, 5-chloro-N4-(2-(isopropylsulfonyl)phenyl)-N2-(7-methoxy-1-propyl-1,2,3,4-tetrahydroisoquinolin-6-yl)pyrimidine-2,4-diamine] | > 7.30
< 50 | < 50 | COc1cc2c(cc1Nc1ncc(Cl)c(Nc3ccccc3S(=O)(=O)C(C)C)n1)CCNCC2(C)C [Example 105, 5-chloro-N4-(2-(isopropylsulfonyl)phenyl)-N2-(8-methoxy-1,1-dimethyl-2,3,4,5-tetrahydro-1H-benzo[d]azepin-7-yl)pyrimidine-2,4-diamine] | > 7.30
